In PMC11173485, “Connecting GSK-3β Inhibitory Activity with IKK-β or ROCK-1 Inhibition to Target Tau Aggregation and Neuroinflammation in Alzheimer’s Disease—Discovery, In Vitro and In Cellulo Activity of Thiazole-Based Inhibitors” (Molecules, 2024):

Legend:
GSK-3β = GSK-3β (Homo sapiens, UniProt P49841); experiment: ADP-Glo kinase assay, GSK-3β inhibition; format: biochemical; parameters: purchased Promega; details: for IC50: mean ± SEM, ATP 25 µM; for inhibition at 10 µM: mean ± SD, read-out: % inh. at 10 µM GSK-3β
GSK-3β, sequence (P49841 whole entry): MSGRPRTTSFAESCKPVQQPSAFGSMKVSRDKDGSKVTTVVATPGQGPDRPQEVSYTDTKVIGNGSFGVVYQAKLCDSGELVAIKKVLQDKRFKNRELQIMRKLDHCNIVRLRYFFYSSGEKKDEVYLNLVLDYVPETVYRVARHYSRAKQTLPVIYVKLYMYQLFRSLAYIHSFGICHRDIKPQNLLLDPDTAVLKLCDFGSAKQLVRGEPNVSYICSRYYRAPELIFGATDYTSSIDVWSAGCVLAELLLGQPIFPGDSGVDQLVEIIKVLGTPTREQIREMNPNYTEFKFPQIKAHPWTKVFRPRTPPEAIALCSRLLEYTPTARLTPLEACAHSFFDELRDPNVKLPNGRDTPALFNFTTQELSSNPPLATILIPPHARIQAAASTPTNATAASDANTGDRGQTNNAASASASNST
Source text: (§1) We evaluated the inhibitory activity of the final compounds against GSK-3β, IKK-β, and ROCK-1 kinases using the commercially available ADP-Glo™ kinase assay. The method was based on the measurement of luminescence that correlates with kinase activity. […] The latter are inhibitors of the kinases of interest and were integral to the design of our studies.
(§2) Promega’s Kinase Enzyme Systems (Promega; Madison, WI, USA) were used to determine the activities of the tested compounds against the human recombinant kinases GSK-3β, IKK- β, and ROCK-1. The assays were performed according to the provided manufacturer’s instruction, based on the optimized conditions of the enzymatic reactions, using the low-volume, white polystyrene, 384-well plates. The ADP-Glo™ Assay (Promega; Madison, WI, USA) was used for bioluminescent detection of the kinase activity. Stock solutions of the tested compounds in DMSO (1mM) were diluted with the Kinase Assay Buffer before use (40 mM Tris, pH 7.5, enriched with 50 µM dithiothreitol; DTT), giving the final desired concentrations. The kinase enzymes, substrates, and ATP solutions were also diluted with the assay buffer prior to use. The GSK-3β, IKK-β, and ROCK-1 substrates were derived from human muscle glycogen synthase 1, human IkBA, and human 40S ribosomal protein S6, respectively. The assay procedure was as follows: At first, the appropriate kinase enzyme (GSK-3β: 10 ng per well; IKK-β: 45 ng per well; ROCK-1: 24 ng per well) was incubated with the tested sample (10 µM in well) for 5 min. The DMSO solution (1% in well) was used in the blank samples instead of the tested inhibitors. After the incubation period, ATP (25 µM per well in the case of GSK-3β and IKK-β kinases; 5 µM per well in the case of ROCK-1 kinase) and an appropriate enzyme substrate (0.2 µg/µL in well) were added to start the enzymatic reaction. The reaction mixture was kept at room temperature for 1 h; then, the ADP-Glo™ reagent was added, to terminate the kinase reaction and deplete any remaining ATP. After 40 min, a second reagent (Kinase Detection Reagent) was applied to convert the obtained ADP to ATP and to generate light from the newly synthesized ATP using a luciferase/luciferin reaction. The mixture was incubated for another 30 min at room temperature before the luminescence was measured. The calculations of the percent of kinases’ inhibition by tested compounds were based on the equation 100 − (S/B) × 100; S and B are the enzyme activities with and without the tested sample, respectively. […] Each compound was evaluated in two independent experiments, with every data point collected in duplicate.

ROCK-1 [1] = molecular target: T1, ROCK-1 (Homo sapiens, UniProt Q13464); experiment: ADP-Glo kinase assay, ROCK-1 inhibition; format: biochemical; details: for inhibition at 10 µM: mean ± SD, read-out: % inh. at 10 µM ROCK-1; for IC50: mean ± SEM, ATP 5 µM
T1 construct: purchased Promega
T1 sequence (Q13464 whole entry): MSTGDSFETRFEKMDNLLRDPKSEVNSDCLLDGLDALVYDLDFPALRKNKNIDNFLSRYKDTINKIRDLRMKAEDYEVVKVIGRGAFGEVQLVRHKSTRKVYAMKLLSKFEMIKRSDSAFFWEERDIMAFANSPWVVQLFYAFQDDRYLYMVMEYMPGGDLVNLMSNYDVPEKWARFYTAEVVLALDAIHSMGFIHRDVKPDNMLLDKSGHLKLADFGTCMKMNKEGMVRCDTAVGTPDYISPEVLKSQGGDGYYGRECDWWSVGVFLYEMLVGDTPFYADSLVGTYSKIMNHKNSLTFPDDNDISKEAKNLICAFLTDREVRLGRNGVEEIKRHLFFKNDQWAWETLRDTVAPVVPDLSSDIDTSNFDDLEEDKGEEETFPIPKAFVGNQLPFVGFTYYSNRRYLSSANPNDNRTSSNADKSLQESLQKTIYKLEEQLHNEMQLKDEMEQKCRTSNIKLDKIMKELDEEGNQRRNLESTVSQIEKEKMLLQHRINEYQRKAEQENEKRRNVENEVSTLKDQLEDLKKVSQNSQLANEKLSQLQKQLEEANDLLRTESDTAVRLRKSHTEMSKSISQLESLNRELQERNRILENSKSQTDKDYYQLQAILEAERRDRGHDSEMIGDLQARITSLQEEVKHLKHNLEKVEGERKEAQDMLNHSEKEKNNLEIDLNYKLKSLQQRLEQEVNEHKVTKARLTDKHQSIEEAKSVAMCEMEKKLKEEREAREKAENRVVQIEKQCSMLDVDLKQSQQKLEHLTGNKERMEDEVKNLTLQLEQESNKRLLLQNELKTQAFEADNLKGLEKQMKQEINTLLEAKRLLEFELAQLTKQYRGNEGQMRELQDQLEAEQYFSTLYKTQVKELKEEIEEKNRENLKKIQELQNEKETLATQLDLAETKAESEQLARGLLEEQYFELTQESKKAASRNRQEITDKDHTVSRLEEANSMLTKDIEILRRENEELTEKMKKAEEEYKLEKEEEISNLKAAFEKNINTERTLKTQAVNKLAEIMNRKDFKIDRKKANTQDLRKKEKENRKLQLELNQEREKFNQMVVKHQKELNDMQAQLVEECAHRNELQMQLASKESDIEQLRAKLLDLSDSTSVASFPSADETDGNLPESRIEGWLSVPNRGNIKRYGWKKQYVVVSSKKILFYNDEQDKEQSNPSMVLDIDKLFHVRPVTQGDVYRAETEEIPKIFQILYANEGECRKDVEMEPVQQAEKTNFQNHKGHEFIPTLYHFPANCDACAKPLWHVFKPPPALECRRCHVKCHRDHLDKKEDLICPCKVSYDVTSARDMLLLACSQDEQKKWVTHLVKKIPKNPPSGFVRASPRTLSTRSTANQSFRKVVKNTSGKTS
Source text: as §1
Promega’s Kinase Enzyme Systems (Promega; Madison, WI, USA) were used to determine the activities of the tested compounds against the human recombinant kinases GSK-3β, IKK- β, and ROCK-1. The assays were performed according to the provided manufacturer’s instruction, based on the optimized conditions of the enzymatic reactions, using the low-volume, white polystyrene, 384-well plates. The ADP-Glo™ Assay (Promega; Madison, WI, USA) was used for bioluminescent detection of the kinase activity. Stock solutions of the tested compounds in DMSO (1mM) were diluted with the Kinase Assay Buffer before use (40 mM Tris, pH 7.5, enriched with 50 µM dithiothreitol; DTT), giving the final desired concentrations. The kinase enzymes, substrates, and ATP solutions were also diluted with the assay buffer prior to use. The GSK-3β, IKK-β, and ROCK-1 substrates were derived from human muscle glycogen synthase 1, human IkBA, and human 40S ribosomal protein S6, respectively. […] The DMSO solution (1% in well) was used in the blank samples instead of the tested inhibitors. After the incubation period, ATP (25 µM per well in the case of GSK-3β and IKK-β kinases; 5 µM per well in the case of ROCK-1 kinase) and an appropriate enzyme substrate (0.2 µg/µL in well) were added to start the enzymatic reaction. The reaction mixture was kept at room temperature for 1 h; then, the ADP-Glo™ reagent was added, to terminate the kinase reaction and deplete any remaining ATP. After 40 min, a second reagent (Kinase Detection Reagent) was applied to convert the obtained ADP to ATP and to generate light from the newly synthesized ATP using a luciferase/luciferin reaction. The mixture was incubated for another 30 min at room temperature before the luminescence was measured. The calculations of the percent of kinases’ inhibition by tested compounds were based on the equation 100 − (S/B) × 100; S and B are the enzyme activities with and without the tested sample, respectively. […]. IC50 results were obtained using nonlinear regression (GraphPad Prism 9; GraphPad Software, San Diego, CA, USA) by plotting the residual enzyme activities against the applied inhibitor concentration. Each compound was evaluated in two independent experiments, with every data point collected in duplicate.

IKK-β [2] = molecular target: T2, IKK-β (Homo sapiens, UniProt O14920); experiment: ADP-Glo kinase assay, IKK-β inhibition; format: biochemical; details: for IC50: mean ± SEM, ATP 25 µM; for inhibition at 10 µM: mean ± SD, read-out: % inh. at 10 µM IKK-β
T2 construct: purchased Promega
T2 sequence (O14920 1-756): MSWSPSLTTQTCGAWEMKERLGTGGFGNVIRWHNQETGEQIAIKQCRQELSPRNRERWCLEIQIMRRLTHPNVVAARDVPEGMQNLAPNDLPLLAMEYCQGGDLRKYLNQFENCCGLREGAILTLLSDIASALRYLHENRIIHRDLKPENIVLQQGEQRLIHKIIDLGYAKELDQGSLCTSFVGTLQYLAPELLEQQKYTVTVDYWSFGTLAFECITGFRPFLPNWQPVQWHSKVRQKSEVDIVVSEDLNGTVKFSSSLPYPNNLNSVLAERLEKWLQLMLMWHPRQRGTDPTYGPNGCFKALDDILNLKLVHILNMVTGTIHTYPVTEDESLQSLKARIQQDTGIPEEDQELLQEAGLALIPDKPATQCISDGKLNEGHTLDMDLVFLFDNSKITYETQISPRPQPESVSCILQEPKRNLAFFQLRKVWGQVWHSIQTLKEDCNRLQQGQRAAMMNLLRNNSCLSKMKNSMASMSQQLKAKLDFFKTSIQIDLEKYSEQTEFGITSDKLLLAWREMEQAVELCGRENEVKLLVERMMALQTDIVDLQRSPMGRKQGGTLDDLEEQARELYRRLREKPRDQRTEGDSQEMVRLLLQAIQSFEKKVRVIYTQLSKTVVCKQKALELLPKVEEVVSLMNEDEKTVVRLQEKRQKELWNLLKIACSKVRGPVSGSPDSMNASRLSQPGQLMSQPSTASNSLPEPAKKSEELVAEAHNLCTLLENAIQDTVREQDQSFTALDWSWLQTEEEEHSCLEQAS
Source text: as §1, §2

ROCK-1 [3] = system: ROCK-1; parameters: method as in PMID 28284870; details: Figure 1; cited from earlier work
IKK-β [4] = system: IKK-β; parameters: method as in PMID 15125939; details: Figure 1; cited from earlier work

SMILES	IC50 (GSK-3β) [nM]	inhibition at 10 µM (ROCK-1 [1]) [%]	IC50 (IKK-β [2]) [nM]	inhibition at 10 µM (IKK-β [2]) [%]	IC50 (ROCK-1 [1]) [nM]	inhibition at 10 µM (GSK-3β) [%]	IC50 (ROCK-1 [3]) [nM]	IC50 (IKK-β [4]) [nM]
CC(=O)Nc1cc(-c2cc3c(s2)C(=O)NC(C)(C)N3)ccn1 [Compound 38, N-(4-(2,2-Dimethyl-4-oxo-1,2,3,4-tetrahydrothieno [3,2-d]pyrimidin-6-yl)pyridin-2-yl)acetamide]	1130 ± 43	50	6520 ± 281					
CC1(C)NC(=O)c2sc(-c3ccnc(NC(=O)C4CCCCC4)c3)cc2N1 [Compound 42, N-(4-(2,2-Dimethyl-4-oxo-1,2,3,4-tetrahydrothieno [3,2-d]pyrimidin-6-yl)pyridin-2-yl)-cyclohexanecarboxamide]	830 ± 30	30		18				
CC1(C)NC(=O)c2sc(-c3ccnc(NC(=O)c4ccccc4)c3)cc2N1 [Compound 43, N-(4-(2,2-Dimethyl-4-oxo-1,2,3,4-tetrahydrothieno [3,2-d]pyrimidin-6-yl)pyridin-2-yl)benzamide]	1310 ± 42			38	3740 ± 217			
CC1(C)NC(=O)c2sc(-c3ccnc(NS(C)(=O)=O)c3)cc2N1 [Compound 44, N-(4-(2,2-Dimethyl-4-oxo-1,2,3,4-tetrahydrothieno [3,2-d]pyrimidin-6-yl)pyridin-2-yl)-methanesulfonamide]		< 10		< 10		32		
CCS(=O)(=O)Nc1cc(-c2cc3c(s2)C(=O)NC(C)(C)N3)ccn1 [Compound 45, N-(4-(2,2-Dimethyl-4-oxo-1,2,3,4-tetrahydrothieno [3,2-d]pyrimidin-6-yl)pyridin-2-yl)-ethanesulfonamide]		< 10		< 10		40		
CC1(C)NC(=O)c2sc(-c3ccnc(NCC4CC4)c3)cc2N1 [Compound 46, 6-(2-((Cyclopropylmethyl)amino)pyridin-4-yl)-2,2-dimethyl-2,3-dihydrothieno [3,2-d]pyrimidin-4(1H)-one]				41	1730 ± 78	39		
CC(=O)Nc1cc(-c2cc(NC(N)=O)c(C(N)=O)s2)ccn1 [Compound 47, 5-(2-Acetamidopyridin-4-yl)-3-ureidothiophene-2-carboxamide]				17		34		
NC(=O)Nc1cc(-c2ccnc(NC(=O)C3CCCCC3)c2)sc1C(N)=O [Compound 51, 5-(2-(Cyclohexanecarboxamido)pyridin-4-yl)-3-ureidothiophene-2-carboxamide]	614 ± 26			< 10				
NC(=O)Nc1cc(-c2ccnc(NC(=O)c3ccccc3)c2)sc1C(N)=O [Compound 52, 5-(2-Benzamidopyridin-4-yl)-3-ureidothiophene-2-carboxamide]	398 ± 12	15		30				

The next lines start with results.

IC50 (GSK-3β) [nM]	inhibition at 10 µM (ROCK-1 [1]) [%]	IC50 (IKK-β [2]) [nM]	inhibition at 10 µM (IKK-β [2]) [%]	IC50 (ROCK-1 [1]) [nM]	inhibition at 10 µM (GSK-3β) [%]	SMILES	IC50 (ROCK-1 [3]) [nM]	IC50 (IKK-β [4]) [nM]
	< 10		< 10		47	CC1(C)NC(=O)c2sc(-c3cccc(NC(=O)C4CC4)c3)cc2N1 [Compound 53, N-(3-(2,2-Dimethyl-4-oxo-1,2,3,4-tetrahydrothieno [3,2-d]pyrimidin-6-yl)phenyl)cyclopropanecarboxamide]		
453 ± 13			10			CC1(C)NC(=O)c2sc(-c3ccc(F)c(NC(=O)C4CC4)c3)cc2N1 [Compound 54, N-(5-(2,2-Dimethyl-4-oxo-1,2,3,4-tetrahydrothieno [3,2-d]pyrimidin-6-yl)-2-fluorophenyl)-cyclopropanecarboxamide]		
	< 10		16		11	CCS(=O)(=O)Nc1cccc(-c2cc3c(s2)C(=O)NC(C)(C)N3)c1 [Compound 55, N-(3-(2,2-Dimethyl-4-oxo-1,2,3,4-tetrahydrothieno [3,2-d]pyrimidin-6-yl)phenyl)ethanesulfonamide]		
	33		< 10		< 10	CC1(C)NC(=O)c2sc(-c3cccc(NS(=O)(=O)C4CCCCC4)c3)cc2N1 [Compound 56, N-(3-(2,2-Dimethyl-4-oxo-1,2,3,4-tetrahydrothieno [3,2-d]pyrimidin-6-yl)phenyl)cyclohexanesulfonamide]		
	< 10		17		< 10	CC1(C)NC(=O)c2sc(-c3cccc(S(=O)(=O)N4CCCCC4)c3)cc2N1 [Compound 57, 2,2-Dimethyl-6-(3-(piperidin-1-ylsulfonyl)phenyl)-2,3-dihydrothieno [3,2-d]pyrimidin-4(1H)-one]		
1850 ± 38	< 10	7620 ± 695				NC(=O)Nc1cc(-c2ccc(F)c(NC(=O)C3CC3)c2)sc1C(N)=O [Compound 59, 5-(3-(Cyclopropanecarboxamido)-4-fluorophenyl)-3-ureidothiophene-2-carboxamide]		
12	40		< 10			O=C1NC2(CCCO2)Nc2cc(-c3ccnc(NC(=O)C4CC4)c3)sc21 (stereo not shown) [Compound 61, N-(4-(4′-Oxo-3′,4,4′,5-tetrahydro-1′H,3H-spiro[furan-2,2′-thieno [3,2-d]pyrimidin]-6′-yl)pyridin-2-yl)cyclopropanecarboxamide]		
161 ± 2			46	119 ± 6		CC1(C)NC(=O)c2sc(-c3ccncc3)cc2N1 [I, reference compound]	90	
		405 ± 9			47	NC(=O)Nc1cc(-c2ccc(F)cc2)sc1C(N)=O [III, reference compound]		63
